{
  "source": "ChEMBL document CHEMBL1158217",
  "about": "“Tetranortriterpenoids from Ruagea glabra” (1996)",
  "data": [
    {"tested_on": "Spodoptera frugiperda", "assay": "Antifeedant activity against Spodoptera frugiperda final instar larvae at 100 ppm after 18 hrs by glass fiber disk method", "type": "functional", "set-up": "unit not given here", "values": [
      {"smiles": "COC(=O)C[C@H]1C(C)(C)[C@H](OC(C)=O)[C@H]2C(=O)[C@]1(C)[C@H]1CC[C@]3(C)[C@@H](CC(=O)O[C@H]3c3ccoc3)[C@]13O[C@H]23", "note": "[XYLOCARPIN]", "Activity": 77.8},
      {"smiles": "COC(=O)C[C@H]1C(C)(C)[C@H](OC(=O)C(C)C)[C@H]2C(=O)[C@]1(C)[C@H]1CC[C@]3(C)[C@@H](CC(=O)O[C@H]3c3ccoc3)[C@]13O[C@H]23", "note": "[RUAGEANIN A]", "Activity": 72.6},
      {"smiles": "C/C=C(\\C)C(=O)O[C@H]1C(C)(C)[C@H](CC(=O)OC)[C@]2(C)C(=O)[C@@]1(O)[C@H]1O[C@]13[C@@H]1CC(=O)O[C@@H](c4ccoc4)[C@]1(C)CC[C@H]23", "note": "[RUAGEANIN B]", "Activity": 86.3},
      {"smiles": "C=C1[C@@H]2CC[C@@]3(C)[C@H](c4ccoc4)OC(=O)C[C@]13O[C@H]1CC(=O)C(C)(C)[C@H](CC(=O)OC)[C@]12C", "note": "[METHYLANGOLENSATE]", "Activity": 66.4}
    ]}
  ]
}
